{"source": "patent US20230382934A1", "about": "“HIGH ENTROPY OXIDES AND METHODS OF SYNTHESIS AND USE THEREOF” (Auburn University, priority 2022, published 2023)", "key": {"[1]": {"test": "Metal ion exchange with Fe(II) followed by UV/vis", "assay_type": "physicochemical", "procedure": "FIG. 18, comprising FIG. 18A and FIG. 18B, depicts representative spectrophotometric spectra. FIG. 18A depicts spectrophotometric analysis of the reaction between 0.1 mM Fe(ClO4)2 and 0.1 mM 1 in MeCN at 298 K. The UV/vis spectra of the product formed from 0.1 mM Fe(ClO4)2 and 0.1 mM H4qp4 (blue) and that corresponding to 0.1 mM 1 are provided for comparison. FIG. 18B depicts spectrophotometric analysis of the reaction between 0.1 mM Fe(OTf)2 and 0.1 mM 1 in aqueous solutions containing 50 mM HEPES buffered to pH 7.00 at 298 K. The UV/vis spectrum of the product formed from 0.1 mM Fe(OTf)2 and 0.1 mM H4qp4 (blue) and that corresponding to 0.1 mM 1 are provided for comparison."}, "[2]": {"details": "cited from earlier work; for increase of relaxivity upon oxidation by excess H2O2: recently reported sensors"}, "[3]": {"details": "cited from earlier work; for pMn: pH 7.4, 1.0 mM Mn(II) and ligand, previously characterized complexes; for log KML of the Mn(II) complex: other reported Mn(II)-binding ligands"}, "[4]": {"test": "Stability of Fe(III) complexes by potentiometric pH titration (log KML)", "assay_type": "physicochemical", "details": "25° C.", "procedure": "(§1) The aqueous speciation of H4qp4 was previously determined. Those for its Fe(II) and Fe(III) complexes were assessed using a METROHM 765 Dosimat with a jacketed, airtight glass titration vessel. A Fisher Scientific Accumet Research AR15 pH meter was used to monitor the pH of the sample solutions during the titrations. The electrode was calibrated before each titration using commercially available standard solutions buffered to pH 4.0, 7.0, and 10.0. All samples were purged with argon prior to analysis and subsequently analyzed under an argon atmosphere at 25° C. to prevent carbonate contamination. All solution samples were prepared in solutions of 100 mM KCl in deionized Millipore water. The titrations investigating metal-ligand speciation were run with solutions that contained a 1:1 molar mixture of the ligand and FeCl2·(4H2O). Carbonate-free solutions of 0.10 M KOH and 0.10 M HCl were prepared using argon-saturated deionized Millipore water. The titration data were analyzed and fit to speciation models using the Hyperquad2006 program."}, "[5]": {"test": "T1-weighted relaxivity, 3 T clinical MRI scanner", "text": "All MRI data were collected at the Auburn University MRI Research Center on a Siemens Verio open-bore 3-T MRI clinical scanner. A 15-channel knee coil was used to simultaneously image 12-15 samples. The imaging procedure was identical to those used for similar studies (Zhang, Q. et al., 2011, Inorg. Chem. 50, 9365; Yu, M. et al., 2014, J. Am. Chem. Soc., 136:12836; Yu, M. et al., 2017, Inorg. Chem., 56:2812; Yu, M. et al., 2012, Inorg. Chem. 51:9153). An inversion recovery (IR) sequence was used that featured a non-selective adiabatic inversion pulse followed by a slice-selective gradient recalled echo (GRE) readout after a delay period corresponding to the inversion time (TI) (Bernstein, M. A. et al., 2004, Handbook of MRI Pulse Sequences; Haacke, E. M. et al., 1999, Magnetic Resonance Imaging: Physical Principles and Sequence Design). The GRE was a saturation readout, such that only one line of k-space was acquired per repetition time (TR), in order to maximize both signal strength and the accuracy of the T1 estimates. […]\nImage analysis was performed using custom Matlab programs (Mathworks, Natick, MA). The initial TI=4.8 ms image was used as a baseline to determine circular region of interest (ROI) boundaries for each sample; from these, the mean pixel magnitudes for each ROI were calculated. […]"}, "[6]": {"test": "Variable temperature 17O NMR, aquation number and water exchange of Mn(II) complexes", "assay_type": "physicochemical", "details": "Example 1, Mn(II) complexes, 298 K", "procedure": "FIG. 16 depicts plots of r2° as a function of temperature for 1 before and after oxidation by H2O2. Experimental conditions for pre-activated sensor (black squares): [1]=6.0 mM in 60 mM HEPES buffered to pH 7.4 and 10% (v/v) of 10% ^17OH2, B=9.4 T. Experimental conditions for activated sensor (red circles): [1]=2.5 mM in 60 mM MOPS buffered to pH 7.4 with 15 equiv. H2O2 and 10% (v/v) of 10% ^17OH2, B=9.4 T. NMR data acquisition began 15 min after the start of the oxidation reaction.\nAquation numbers (q) were calculated from the maximum ^17O transverse relaxivity, r2max°, and the equation: q=r2max°/510; Gale, Zhu, and Caravan previously used this relationship to estimate the inner-sphere hydration state of Mn(II) in coordination complexes (Gale, E. M. et al., 2013, J. Am. Chem. Soc., 135:18600). Relaxation rates were measured both for aqueous solutions containing Mn(II) complexes and for metal-free solutions buffered to pH 7.4. The linewidths at half-height of the signal were determined by a deconvolution procedure on the real part of the Fourier transformed spectra with a Lorentzian shape function in the data analysis module of Bruker Topspin 1.3® software. The measurements were performed with a commercial 5 mm Bruker broadband probe thermostat with a Bruker B-VT 3000 variable temperature unit. […]"}, "[7]": {"test": "Metal ion exchange with Zn(II) followed by 1H NMR", "assay_type": "physicochemical", "details": "Example 2, 10 mM Fe(III) complex 3 and 20 mM Zn(ClO4)2, 48 h", "procedure": "FIG. 19, comprising FIG. 19A and FIG. 19B, depicts representative NMR data. FIG. 19A depicts a reaction between 20 mM Zn(ClO4)2 and 10 mM 1 in CD3CN. The reaction equilibrated at 295 K for 24 h prior to data acquisition. FIG. 19B depicts the ^1H NMR spectrum of the product of the reaction between 10 mM Zn(ClO4)2 and 10 mM metal-free H4qp4.\nFIG. 63, comprising FIG. 63A and FIG. 63B, depicts representative NMR data. FIG. 63A depicts the reaction between 20 mM Zn(ClO4)2 and 10 mM 3 in D20. The reaction equilibrated at 295 K for 48 h prior to data acquisition. FIG. 63B depicts a ^1H NMR spectrum of the product of the reaction between 10 mM Zn(ClO4)2 and 10 mM metal-free H4qp4 in D20."}, "[8]": {"details": "Example 1, previously reported Mn(II) complex 3; cited from earlier work"}, "[9]": {"test": "Stability of Fe(II) complexes by potentiometric pH titration (log KML)", "assay_type": "physicochemical", "details": "25° C.", "procedure": "as §1"}}, "data": [{"compound": "CC#N.O=S(=O)([O-])C(F)(F)F.O=S(=O)([O-])C(F)(F)F.Oc1ccc(O)c(CN(CCN(Cc2ccccn2)Cc2ccccn2)Cc2ccccn2)c1.[Mn+2]", "note": "[Complex 2]", "values": [{"measurement": "Mn(II) displaced by an equimolar amount of Fe(II)", "setting": "[1]; Example 1, MeCN, by 15 h", "result": "approximately 10%"}, {"measurement": "increase of relaxivity upon oxidation by excess H2O2", "setting": "[2]", "result": 10, "unit": "%"}, {"measurement": "pMn", "setting": "[3]", "result": 7.25}, {"measurement": "log KML", "setting": "[4]", "result": 38.84}]}, {"compound": "O=S(=O)([O-])C(F)(F)F.O=S(=O)([O-])C(F)(F)F.[Fe+3].[O-]c1ccc(O)cc1CN1CCCNCCN(Cc2cc(O)ccc2O)CCCNCC1", "note": "[Complex 3, (1-(2,5-dihydroxybenzyl)-8-(2,5-dihydroxybenzylalkoxide)-1,4,8,11-tetraazacyclotetradecane)iron(III) triflate]", "values": [{"measurement": "r1", "setting": "[5]; Example 2, Fe(III) complex 3, 3 T, 50 mM HEPES pH 7.00, 298 K", "result": 0.87, "unit": "mM⁻¹ s⁻¹"}, {"measurement": "Mn(II) displaced by an equimolar amount of Fe(II)", "setting": "[1]; Example 1, by 3 h", "result": 80, "unit": "%"}, {"measurement": "rate constant for water exchange (kex)", "setting": "[6]", "result": "4.9e+06", "unit": "s⁻¹"}, {"measurement": "pMn", "setting": "[3]", "result": 5.36}, {"measurement": "Zn(II) complex with H4qp4 formed", "setting": "[7]", "result": "only trace amounts"}, {"measurement": "r1 of pre-activated form", "setting": "[8]", "result": 5.46, "unit": "mM^−1 s^−"}, {"measurement": "log KML", "setting": "[4]", "result": 33.80}]}, {"compound": "Oc1ccc(O)c(CN(CCN(Cc2ccccn2)Cc2cc(O)ccc2O)Cc2ccccn2)c1.[Br-].[Br-].[Mn+2]", "note": "[Complex 3]", "values": [{"measurement": "increase of relaxivity upon oxidation by excess H2O2", "setting": "[2]", "result": 30, "unit": "%"}]}, {"compound": "O=C(O)CN1CCN(CC(=O)O)CCN(CC(=O)O)CCN(CC(=O)O)CC1", "note": "[DOTA^4−]", "values": [{"measurement": "log KML of the Mn(II) complex", "setting": "[3]", "result": 19.89}]}, {"compound": "O=C([O-])CN(CC(=O)[O-])C1CCCCC1N(CC(=O)[O-])Cc1ccccn1.[Fe+2]", "note": "(stereo not drawn) [Fe(II)-PyC3A]", "values": [{"measurement": "increase in relaxivity on oxidation to Fe(III)", "setting": "[2]; 1.4 T", "result": 10, "unit": "fold"}]}, {"compound": "NCCN1CCN(CC(=O)O)Cc2cccc(n2)CN(CC(=O)O)CC1", "note": "[PC2A-EA^2−]", "values": [{"measurement": "log KML of the Mn(II) complex", "setting": "[3]", "result": 19.01}]}, {"compound": "O=C(O)CN(CC(=O)O)C1CCCCC1N(CC(=O)O)Cc1ccccn1", "note": "(stereo not drawn) [PyC3A^3−]", "values": [{"measurement": "log KML of the Mn(II) complex", "setting": "[3]", "result": 14.14}]}, {"compound": "O.O.O.O.O.O.[Mn+2]", "note": "[[Mn(H2O)6]^2+]", "values": [{"measurement": "T1-weighted relaxivity", "setting": "[5]; Example 1, measured independently", "result": 5.26, "unit": "mM^−1 s^−"}]}, {"compound": "(1-(2,5-dihydroxybenzyl)-8-(2,5-dihydroxybenzylalkoxide)-1,4,8,11-tetraazacyclotetradecane)iron(II) triflate [Complex 1]", "values": [{"measurement": "log KML", "setting": "[9]", "result": 27.16}]}]}
